# Reference: patent US7338949B2, “Mycobacterial inhibitors” (Janssen Pharmaceutica N.V., priority 2004, dated 2008)
# How the values were obtained:
# M. Smegmatis ATCC607 = assay: In-vitro method for testing compounds for anti-bacterial activity against strain M. Smegmatis ATCC607; format: cell-based; details: M. smegmatis growth inhibition, 48 hours at 37° C., Alamar Blue fluorescence; for IC50: Mycolicibacterium smegmatis, ATCC607, 48 h
# Procedure: D.2. In-vitro method for testing compounds for anti-bacterial activity against strain M. Smegmatis ATCC607.
# Flat-bottom, sterile 96-well plastic microtiter plates were filled with 180 μl of sterile deionized water, supplemented with 0.25% BSA. Subsequently, stock solutions (7.8× final test concentration) of compounds were added in 45 μl volumes to a series of duplicate wells in column 2 so as to allow evaluation of their effects on bacterial growth. Serial five-fold dilutions (45 μl in 180 μl) were made directly in the microtiter plates from column 2 to 11 using a customised robot system (Zymark Corp., Hopkinton, Mass.). Pipette tips were changed after every 3 dilutions to minimize pipetting errors with high hydrophobic compounds. Untreated control samples with (column 1) and without (column 12) inoculum were included in each microtiter plate. Approximately 250 CFU per well of bacteria inoculum, in a volume of 100 μl in 2.8× Mueller-Hinton broth medium, was added to the rows A to H, except column 12. The same volume of broth medium without inoculum was added to column 12 in row A to H. The cultures were incubated at 37° C. for 48 hours in a humidified 5% CO2 atmosphere (incubator with open air valve and continuous ventilation). At the end of incubation, two days after inoculation, the bacterial growth was quantitated fluorometrically. Therefore Alamar Blue (10×) was added to all wells in a volume of 20 μl and plates were incubated for another 2 hours at […]
# The fluorescence was read in a computer-controlled fluorometer (Cytofluor, Biosearch) at an excitation wavelength of 530 nm and an emission wavelength of 590 nm (gain 30). The % growth inhibition achieved by the compounds was calculated according to standard methods. The pIC50 was defined as the 50% inhibitory concentration for bacterial growth.
smiles,measurement,setting,value
"COc1ccc2nc(OC)c([C@@H](c3ccccc3)[C@]3(c4cccc5ccccc45)CCN(C)CO3)cc2c1 (single isomer, unassigned) [Compound 8]",IC50,M. Smegmatis ATCC607,63.1 nM
"COc1nc2ccc(Cl)cc2cc1[C@@H](c1ccccc1)[C@@]1(c2cccc3ccccc23)CCN(C)CO1 (single isomer, unassigned) [Compound 7]",pIC50,M. Smegmatis ATCC607,7.9
"COc1nc2ccc(Cl)cc2cc1[C@@H](c1ccccc1)[C@]1(c2cccc3ccccc23)CC[N+](C)(C)CO1.[I-] (single isomer, unassigned)",melting point,,211 °C
"COc1nc2ccc(-c3ccccc3)cc2cc1[C@@H](c1ccccc1)[C@@]1(c2cccc3ccccc23)CCN(C)CO1 (single isomer, unassigned) [Compound 13]",IC50,M. Smegmatis ATCC607,316 nM
"CCN1CC[C@](c2ccc(F)cc2F)(C(c2ccccc2)c2cc3cc(Br)ccc3nc2OC)OC1=O (single isomer, unassigned) [Compound 5]",melting point,,192 °C
same,IC50,M. Smegmatis ATCC607,20000 nM
"COc1nc2ccc(-c3ccccc3)cc2cc1[C@@H](c1ccccc1)[C@]1(c2cccc3ccccc23)CCN(C)CO1 (single isomer, unassigned) [Compound 6]",IC50,M. Smegmatis ATCC607,25.1 nM
"CCN1CC[C@@](c2ccc(F)cc2F)(C(c2ccccc2)c2cc3cc(Br)ccc3nc2OC)OC1=O (single isomer, unassigned) [Compound 19]",melting point,,216 °C
"COc1nc2ccc(Cl)cc2cc1[C@@H](c1ccccc1)[C@@]1(c2cccc3ccccc23)CCN(C)CO1 (single isomer, unassigned) [Compound 3]",melting point,,189 °C
same,pIC50,M. Smegmatis ATCC607,5.1
"COc1ccc2nc(OC)c([C@@H](c3ccccc3)[C@@]3(c4cccc5ccccc45)CCN(C)CO3)cc2c1 (single isomer, unassigned) [Compound 14]",IC50,M. Smegmatis ATCC607,316 nM
"COc1nc2ccc(Br)cc2cc1[C@@H](c1ccccc1)[C@]1(c2cccc3ccccc23)CCN(C)CO1 (single isomer, unassigned) [Compound 1]",melting point,,112 °C
same,IC50,M. Smegmatis ATCC607,3.16 nM
"COc1nc2ccc(Br)cc2cc1[C@@H](c1ccc(Cl)cc1)[C@]1(c2cccc3ccccc23)CCN(C)CO1 (single isomer, unassigned) [Compound 2]",melting point,,201 °C
same,IC50,M. Smegmatis ATCC607,63.1 nM
"COc1nc2ccc(Cl)cc2cc1[C@@H](c1ccccc1)[C@@]1(c2cccc3ccccc23)CC[N+](C)(C)CO1.[I-] (single isomer, unassigned)",melting point,,195 °C
"COc1nc2ccc(Br)cc2cc1[C@@H](c1ccccc1)[C@@]1(c2cccc3ccccc23)CCN(C)CO1 (single isomer, unassigned) [Compound 11]",melting point,,108 °C
same,IC50,M. Smegmatis ATCC607,316 nM
"COc1nc2ccc(Br)cc2cc1[C@@H](c1ccc(Cl)cc1)[C@@]1(c2cccc3ccccc23)CCN(C)CO1 (single isomer, unassigned) [Compound 17]",IC50,M. Smegmatis ATCC607,316 nM
"COc1nc2ccc(Br)cc2cc1[C@H](c1ccccc1)C1(c2ccccc2)CCN(C)CO1 (single isomer, unassigned) [Compound 12]",melting point,,168 °C
same,IC50,M. Smegmatis ATCC607,158 nM
"COc1nc2ccc(-c3ccco3)cc2cc1[C@@H](c1ccccc1)[C@@]1(c2cccc3ccccc23)CCN(C)CO1 (single isomer, unassigned) [Compound 16]",IC50,M. Smegmatis ATCC607,316 nM
